{"source": "patent US20260184807A1", "about": "“Methods for Treating Rheumatoid Arthritis Using a Syndecan-1 Inhibitor or Syntenin-1 Inhibitor” (The United States Government as represented by the …, priority 2022, published 2026)", "tested_on": "RA monocyte-differentiated MΦs", "test": "CD14+CD86+GLUT1+ MΦ frequency by flow cytometry after Syntenin-1", "type": "cell-based, human", "conditions": "Syntenin-1 1000 ng/mL, 24 h; IL5Ra 2 μg/mL, PDZ1i 10 μM, mTORi 1 μM; FIGS. 3H, 3I", "protocol": "(B, C) RA MΦs were treated with PBS (ctrl) or Syntenin-1 (1000 ng/mL) for 6 hours and transcription levels of HIF1α (n=10) (FIG. 3B). GLUT1, RAPTOR, HK2, PFK2, PDK1, PKM2 (FIG. 3C) were quantified by qRT-PCR (n=6). […] FIGS. 3H, 3I) after 24 hours impact of treatment was determined on CD14+CD86+ GLUT1+ frequency by flow cytometry (n=4-5). […] Data are presented as mean±SEM; significant differences were determined by Mann-Whitney test, Student's t-test, two-way-ANOVA, or one-way ANOVA. *p<0.05, **p<0.01, ***p<0.001, ****p<0.0001. ANOVA, analysis of variance.\nFlow cytometry. Depending on the assay negatively selected human monocytes or human peripheral blood mononuclear cells from Rheumatoid Arthritis patients were stained with anti-CD14, anti-CD86, anti-CD206, anti-CD4 (BioLegend Inc.), or GLUT1 (Novus Biologicals) fluorescently labeled antibodies. Prior to intracellular staining, cells were stimulated with PMA (100 ng/ml) and ionomycin (1.5 μM; both Sigma-Aldrich) in the presence of Brefeldin A (eBioscience, San Diego, USA) for 3-4 h. To exclude dead cells, cells were stained by the ZombieViolet Fixable Viability Kit (BioLegend Inc.). […]\nSyntenin-1 stimulation and inhibition. […] Cells were subsequently harvested in TRIzol reagent (Life Technologies) or RIPA buffer (Cell Signaling Technology) for mRNA quantification and western blot analysis; conditioned media was collected for ELISA.", "data": [{"smiles": "CO[C@H]1C[C@@H]2CC[C@@H](C)[C@@](O)(O2)C(=O)C(=O)N2CCCC[C@H]2C(=O)O[C@H]([C@H](C)C[C@@H]2CC[C@@H](OCCO)[C@H](OC)C2)CC(=O)[C@H](C)/C=C(\\C)[C@@H](O)[C@@H](OC)C(=O)[C@H](C)C[C@H](C)/C=C/C=C/C=C/1C", "note": "[mTORi, Everolimus]", "values": [{"measurement": "Syntenin-1 reconfiguration of naïve cells into RA CD14+CD86+GLUT1+MΦs", "result": "exclusively impaired"}]}]}
